No end group written: not given here.
Key:
[1] = tested on: hippocampal slice cultures; experiment: Aβ-induced cell death (EthD-1/calcein AM, % Death) in organotypic hippocampal slice cultures; assay type: cell-based, mouse
Description: Pups from C57B6/SJL mice were anaesthetized and decapitated at postnatal day 15. The brain was removed and placed in ice-cold dissecting medium (50% Minimum Essential Medium (Invitrogen, Carlsbad, Calif.), 50% Hank's Balanced Salt Solution (Invitrogen), 25 mM HEPES, and 36 mM glucose). Both hippocampi were dissected under a dissecting microscope and cut at 400 μm on a McIlwain tissue chopper. Slices were separated and placed on filter inserts with a 30 mm diameter and a 0.4 μm filter pore size (Millipore, Billerica, Mass.) held in 6-well culture plates. For the first 3 days, slices were kept in Neurobasal media with B-27 supplement, 1 mM glutamine, and 1% penicillin/streptomycin (Invitrogen). Subsequently, the media was changed every 3 days using media without antibiotics. Organotypic cultures were maintained in a humidified incubator at 37° C. in 5% O2 and 5% CO2 for 14 to 21 days.
(§1) Cell death and viability was determined on live slices using the fluorescent probes from Molecular Probes' Live/Dead Kit. After a 40 minute incubation in calcein AM (1:400) and ethidium homodimer (1:1000) in phosphate buffered saline, slices were visualized at 200× magnification with an inverted Nikon Diaphot 200 microscope using the Bio-Rad MRC-1024 Laser Scanning Confocal system (Hercules, Calif.). Random images of the neuronal fields were captured at the emission spectrum of each probe, and Scion Image software (Frederick, Md.) was used to quantify the number of live and dead cells. At least three areas including a neuronal field were imaged and used to determine the percent death for each slice. The percent death was calculated as the number of EthD-1 positive cells divided by the total number of EthD-1 and calcein AM positive cells.
β-amyloid1-42 and reverse Aβ (Aβ42-1) were obtained from BACHEM (Torrance, Calif.). These polypeptides were dissolved in 0.1% NH3OH at 222 μM. For treatments, Aβ was aggregated at 50 μM in Neurobasal media with B-27 supplement and 1 mM glutamine at 37° C. for 24 hours. Then, the slice culture media was removed, and the slices were treated with 1 mL of 25 μM or 50 μM Aβ, reverse Aβ, or vehicle for 24 hours. Human TTR (Calbiochem) or IGF-2 (Peprotech, Rocky Hill, N.J.) was added to slices together with the Aβ treatment at final concentrations of 3 μM (TTR) or 500 nM (IGF-2). sAPPα was prepared as described previously (Mattson et al., Neuron, 10:243-254 (1993)).
Unless otherwise stated, all sAPPα treatments were performed at 1 nM 48 hours prior to the addition of Aβ. Antibodies against TTR (C-20) or IGF-2 (F-20; 4 μg/mL; Santa Cruz) or sAPPα (6E10; 10 μg/mL; Chemicon) were added to slices together with the sAPPα treatment. Goat IgG (4 μg/mL; Santa Cruz) or mouse IgG1 (10 μg/mL; Chemicon) was added as a control. The 10 amino acid fragment of the carboxyl-terminal region of sAPPα (592-601 of APP695; SEVKMDAEFR; SEQ ID NO:1; Sigma) was added according to the same protocol for sAPPα.
SiRNA's were created based on the mouse mRNA sequences using the Ambion Silencer siRNA Construction Kit (Austin, Tex.). Several siRNA's were created by in vitro transcription for each silenced gene. Transfection was performed for 4 hours at 37° C. prior to vehicle or sAPPα treatment using 25 nM siRNA combined with the polyamines in the Ambion siPORT Amine Transfection Agent. Transfections were performed in Neurobasal media with 1 mM glutamine (Invitrogen). The successful mRNA target sequences are as follows, TTR: 5′-[…]-3′ (SEQ ID NO:16) and 5′-[…]-3′ (SEQ ID NO:17); IGF-2: 5′-AA-GGGGATAGAGATGTGAGAG-3′ (SEQ ID NO:18) and 5′-AAATTATGTGGT-AATTCTGCA-3′ (SEQ ID NO:19); IGF-1R: 5′-[…]-3′ (SEQ ID NO:20) and 5′-[…]-3′ (SEQ ID NO:21).
β-amyloid1-42 and reverse Aβ (Aβ42-1) were obtained from BACHEM (Torrance, Calif.). These peptides were dissolved in 0.1% NH3OH at 222 μM. For treatments, Aβ was aggregated at 50 μM in Neurobasal media with B-27 supplement and 1 mM glutamine at 37° C. for 24 hours. […]

human cortical slices = experiment: Aβ-induced cell death (EthD-1/calcein AM) in human organotypic cortical cultures; assay type: cell-based; conditions: for Protection against the Aβ-induced EthD-1 staining: FIG. 6C
From the text: Four patients with intractable epilepsy who had elected to undergo a temporal lobe resection were recruited for this study. […] However, the overlying temporal cortex is normal. The age of the subjects ranged from 20 to 49. Brain tissue was obtained with informed consent from all patients.
Brain tissue was removed in large, intact pieces by electrocautery. Tissue obtained from the temporal cortex was approximately 3 cm×2 cm×1.5-2 cm. Immediately following removal, the tissue was placed in ice-cold Neuregen-I media (Brainbits, Springfield, Ill.), a CO2 independent transport and holding medium, and transported to a tissue culture laboratory. Meninges were removed before cutting the tissue with a scalpel to produce blocks about 0.5-1 cm^3 such that each gyrus was kept as intact as possible and the cortical layers were preserved. As described previously, incisions were made perpendicular to the longitudinal axis of the gyrus and along the white matter (Verwer et al., Exp. Gerontol., 38:167-172 (2003)). A vibratome was used to cut 400 μm thick slices at a plane perpendicular to the longitudinal axis of the gyrus. Thus, all cortical layers and a small amount of white matter were included in a slice. Alternately, small tissue pieces, which were usually obtained from the hippocampus, were cut at 400 μm using a McIlwain tissue chopper. No more than 2 slices were placed on a filter insert with a 30 mm diameter and a 0.4 μm filter pore size (Millipore, Billerica, Mass.) held in 6-well culture plates. For the first 12 hours, slices were kept in 1-1.2 mL Neurobasal media with B-27 supplement, 0.5 mM glutamine, and 1% penicillin/streptomycin (Invitrogen). Subsequently, the media was changed every 2 days using 1 mL of media without antibiotics. Organotypic cultures were maintained in a humidified incubator at 37° C. in 5% O2, 5% CO2, and 90% N for 4 to 28 days.
as §1, with “images” for “images of the neuronal fields”, “areas” for “areas including a neuronal field”
β-amyloid1-42 and reverse Aβ (Aβ42-1) were obtained from BACHEM (Torrance, Calif.). These peptides were dissolved in 0.1% NH3OH at 222 μM. For treatments, Aβ or reverse Aβ was aggregated at 50 μM in Neurobasal media with B-27 supplement and 0.5 mM glutamine at 37° C. for 24 hours. Then, the slice culture media was removed, and the slices were treated with 1 mL of 25 μM or 50 μM Aβ, reverse Aβ, or vehicle for 24 hour. Human TTR (Calbiochem) was added to slices together with the Aβ treatment at final concentrations of 0.03, 0.3, and 3 μM TTR. sAPPα was obtained from Sigma (St. Louis, Mo.). Unless otherwise stated, all sAPPα treatments were performed at 1 nM 48 hours prior to the addition of Aβ. The 10 amino acid fragment of the carboxyl-terminal region of sAPPα (592-601 of APP695; SEVKMDAEFR was added according to the same protocol for sAPPα. Because a variable amount of tissue was obtained from each patient, not all treatments were performed on all patients.

[2] = 1 nM 48 hours prior to 25 μM Aβ (24 hours), FIG. 7
[3] = 1 nM 48 h prior to 25 μM Aβ (24 h), FIG. 12A
[4] = 48 h prior to 25 μM Aβ (24 h), FIG. 12B, 1 nM, final concentration of 1 mM

Row | Substance | Protection against Aβ-induced death (% Death) [1, 2] | Protection against Aβ-induced death (% Death) [1, 4] | other results
1 | SEVKMDAE [fragment with both arginine and phenylalanine eliminated] | reversed the protection |  | 
2 | transthyretin [TTR] |  |  | Protection against Aβ-induced death (% Death) ([1]; 3 μM added together with Aβ, FIG. 4A): completely protected; Protection against the Aβ-induced EthD-1 staining (human cortical slices; co-treatment with 0.03 μM): not; Protection against the Aβ-induced EthD-1 staining (human cortical slices; co-treatment with 0.3 μM): protected; Protection against the Aβ-induced EthD-1 staining (human cortical slices; co-treatment with 3 μM): protected; Concentrations that protect against Aβ toxicity (human cortical slices; human cortical slices, co-treatment with Aβ): ≥ 0.3 µM
3 | R(9)-DAEF (RRRRRRRRRDAEF) [9 arginines added to the NH2-terminal end of the tetrapeptide] |  |  | Protection against Aβ-induced death (% Death) [1, 3]: significantly protected
4 | VKMDAEFR [fragment with the serine and glutamic acid eliminated] | significantly protected |  | 
5 | (dD)AEF |  | do not significantly protect | 
6 | acetyl-EADF (Ac-EADF) |  | does not | 
7 | EADF-amide (EADF-NH2) [EADF (SEQ ID NO:5)-amide, aspartic acid and glutamic acid switched and an amide group attached to the COOH-terminus] |  | significantly protects | 
8 | DAE(dF) |  | do not significantly protect | 
9 | acetyl-DAEF (Ac-DAEF) [DAEF with the NH2-terminal end acetylated] |  |  | Protection against Aβ-induced death (% Death) [1, 3]: did not protect to the same degree as the unmodified tetrapeptide; Protection against Aβ-induced death (% Death) ([1]; 1 nM 48 h prior to 25 μM Aβ (24 h), FIG. 12A, listed as Acetylated DAEF): significant protection
10 | insulin-like growth factor 2 [IGF-2] |  |  | Protection against Aβ-induced death (% Death) ([1]; 500 nM added together with Aβ, FIG. 4A): partially protected
11 | SEVKMDAEF [10 amino acid fragment with the carboxyl arginine eliminated] | protection was maintained |  | 
12 | EVKMDAEFR [fragment with the serine eliminated] | significantly protected |  | 
13 | D(dA)EF |  | do not significantly protect | 

From US20090176714A1, “METHOD OF REDUCING THE EFFECTS OF ABeta AND COMPOSITIONS THEREFORE” (priority 2004, published 2009)
